In patent publication US12433877B2, “Sustained release drug delivery systems and related methods” (Durect Corporation, priority 2021, dated 2025):
Structures can show the parent of a compound that is named as a salt.

How the values were obtained:
[1] = test system: patients undergoing a variety of general surgical procedures; test: Example 18: general surgical procedures (laparotomy, laparoscopic cholecystectomy, colectomy), pain and opioid use; type: in vivo, human; conditions: ITT; for Repeated Measures Pain Intensity on Movement 0-72 Hours, LS Mean: All Timepoints 0-72 hr, LogPad scores only
[2] = clinical; conditions: human, in vivo; for half-life: t1/2 (min, max)
Method: Additionally, alpha 1 acid glycoprotein (AAG) plasma concentrations were measured in these two groups for correlation with free bupivacaine concentrations.
Using non-compartmental methods the following PK parameters were calculated from the plasma concentrations of each compound: area under the plasma concentration vs. time curve until the last measured concentration (AUCt), area under the plasma concentration vs. time curve extrapolated until infinity (AUCinf), the maximum concentration (Cmax), the time of its occurrence (tmax) and the apparent terminal elimination half-life (t1/2). […] The average […] of bupivacaine was approximately 5.2%; free bupivacaine plasma concentrations generally paralleled those of total bupivacaine. There was a large interindividual variability of Cmax of both total and free bupivacaine. […] Note: Table 1.5 presents Geometric mean, ±68th percentile for Cmax rather than absolute min,max.

[3] = test system: pregnant rats; conditions: rat, in vivo
Method: (§1) Bupivacaine hydrochloride was administered subcutaneously to rats at doses of 4.4, 13.3, & 40 mg/kg and to rabbits at doses of 1.3, 5.8, & 22.2 mg/kg during the period of organogenesis (implantation to closure of the hard palate). The high doses are approximately 0.6 times the daily maximum recommended human dose (MRHD) of 660 mg/day on a mg/m^2 body surface area (BSA) basis.

[4] = test system: patients undergoing total abdominal hysterectomy; test: Adverse reactions, total abdominal hysterectomy study; type: in vivo, human; conditions: Formulation A N = 60; Bupivacaine HCl N = 27
Method: In a study of patients undergoing total abdominal hysterectomy, Formulation A, vehicle placebo, or bupivacaine HCl was administered into the surgical incision at the end of surgery.

[5] = Example 18: plasma pharmacokinetics by cohort; type: in vivo, human; conditions: Cohort 2; total bupivacaine in plasma
Method: Plasma PK samples were analyzed for determination of total bupivacaine concentration only and none of the samples were analyzed for determination of free drug concentration.

[6] = test system: rats; test: Rat pre- and post-natal development study; type: in vivo; conditions: 40 mg/kg subcutaneous, implantation through weaning
Method: (§2) There are no studies conducted with Formulation A in pregnant women. […] Based on animal data, advise pregnant women of the potential risks to a fetus. [see Data]
The high dose is approximately 0.6 times the daily MRHD of 660 mg/day on a BSA basis.

[7] = human, in vivo
[8] = test system: subjects undergoing elective outpatient laparoscopic cholecystectomy; test: Example 17: laparoscopic cholecystectomy study, safety (surgical site and CNS-related adverse reactions, TEAEs); type: in vivo; conditions: for Fatal TEAE: Part 2
Method: In two studies in patients undergoing laparoscopic cholecystectomy, Formulation A or bupivacaine HCl was administered into the laparoscopic port incisions at the end of surgery. In one of these studies, a subset of patients received either Formulation A or saline placebo. In a study of patients undergoing laparoscopically-assisted colectomy, Formulation A or vehicle placebo was administered predominantly into the hand port incision at the end of surgery. In a study of patients undergoing laparotomy, Formulation A or bupivacaine HCl was administered into the full length of the surgical incision at the end of surgery. Table 4.7 and Table 4.8 present, respectively, surgical-site adverse reactions and early-occurring central nervous system (CNS)-related adverse reactions from the laparoscopic cholecystectomy study that included a saline placebo control arm.
The trial included: 1) a randomized, parallel-group, double-blind, placebo-controlled study (Part 1) and a randomized, parallel-group, double-blind, bupivacaine HCl active-controlled study (Part 2). The trial evaluated the efficacy and safety of Formulation A (bupivacaine, benzyl alcohol, sucrose acetate isobutyrate) as a delivery system in subjects undergoing elective outpatient laparoscopic cholecystectomy.
The study was conducted as 2 separate parts (Part 1 and Part 2).
The fascia was closed, as required, prior to instillation of Formulation A. Formulation A was instilled into the incisions via a blunt-tipped syringe-tip applicator just prior to skin closure. After administration, the skin was closed in standard fashion with subcuticular sutures and cyanoacrylate skin adhesive or Steri-Strips™.
In Part 1, subjects randomized to saline-placebo were administered sterile normal saline 5 mL (0.9% sodium chloride injection, USP) by direct instillation into the surgical incisions. The 5 mL of placebo was divided between the 4 ports according to a protocol-specified dosing schedule, to provide coverage of all surgical incisions. The fascia was closed, as required, prior to instillation of the placebo composition. The placebo composition was instilled into the incisions via a blunt-tipped syringe-tip applicator just prior to skin closure. After administration, the skin was closed in standard fashion with subcuticular sutures and cyanoacrylate skin adhesive or Steri-Strips™.
In Part 2, subjects randomized to active control were administered bupivacaine HCl 0.5% 15 mL (75 mg; without epinephrine) by infiltration into the margins of the surgical incisions with a 22 gauge needle. The 15 mL of bupivacaine HCl composition was divided between the 4 ports according to a protocol-specified dosing schedule, to provide coverage of all surgical incisions. The fascia was closed, as required, prior to administration of the bupivacaine HCl active control composition. After infiltration, the skin was closed in standard fashion with subcuticular sutures and cyanoacrylate skin adhesive or Steri-Strips™
There were no fatalities in this trial. […]

[9] = test system: pregnant rabbits; test: Embryo-fetal development study, subcutaneous, rabbits; type: in vivo
Method: as §2, §1

With `CCCCN1CCCCC1C(=O)Nc1c(C)cccc1C` (stereo not drawn) [Bupivacaine HCl] the “Repeated Measures Pain Intensity on Movement 0-72 Hours, LS Mean” value ([1]; Cohort 1 (Laparotomy)) was 5.9, the “Total Morphine-equivalent Opioid Medication Use, MEDD 0-72 hours, Median” value ([1]; Cohort 1 (Laparotomy)) was 63.0 mg and the “Repeated Measures Pain Intensity on Movement 0-72 Hours, LS Mean” value ([1]; Cohort 2 (Laparoscopic Cholecystectomy)) was 3.6. For the same molecule, the AUC(0-inf) [2] was 30 to 2210 ng·h/mL, the AUC(0-t) [2] was 249 to 1900 ng·h/mL and the “AUCinf (min, max), free bupivacaine” value [2] was “(0.7, 134) h · ng/mL”. For the same molecule, the “AUCinf, free bupivacaine” value [2] was 48 ng·h/mL, the “AUCt (min, max), free bupivacaine” value [2] was “(0.010, 0.102) mg · h · L^−1” and the “AUCt, free bupivacaine” value [2] was 33 ng·h/mL. For the same molecule, the Cmax [2] was 8 to 195 ng/mL, the “Cmax, free bupivacaine” value [2] was 5.0 ng/mL and the “Cmax, total bupivacaine” value [2] was 90 ng/mL. For the same molecule, the Tmax [2] was 0.92 to 12 h, the “tmax (min, max), free bupivacaine” value [2] was “(0.92, 12.0) h” and the half-life ([2]; free bupivacaine) was 2.9 to 15.2 h. The half-life ([2]; total bupivacaine) was 2.6 to 9.6 h, the “Embryo-fetal effects at the high dose” value [3] was “No embryo-fetal effects were observed” and the “Anemia, (%)” value [4] was “(11.1%)”. The “C-reactive protein increased, (%)” value [4] was “(3.7%)”, the “Dizziness, (%)” value [4] was “(14.8%)” and the “Hypertension, (%)” value [4] was “(7.4%)”. For the same molecule, the “Pyrexia, (%)” value [4] was “(25.9%)”, the “Somnolence, (%)” value [4] was “(7.4%)” and the “Vomiting, (%)” value [4] was “(14.8%)”. For the same molecule, the “Tmax Median” value [5] was 1 h, the “Pup survival at the high dose” value [6] was “decreased pup survival was observed” and the “Cmax (min, max), free bupivacaine” value [7] was “(0.3, 10.1) ng/mL”. The “Fatal TEAE” value ([8]; % of subjects) was “(0.0%)”, the “Fatal TEAE” value ([8]; number of subjects) was 0 and the “Surgical site: Drainage from surgical incision(s)” value ([8]; human, in vivo) was “(4.1%)”. For the same molecule, the “Surgical site: Surgical site bleeding” value ([8]; human, in vivo) was “(16.2%)”, the “Surgical site: Surgical site infection” value ([8]; human, in vivo) was “(0.7%)” and the “Surgical site: Visible bruising” value ([8]; human, in vivo) was “(70.9%)”. For the same molecule, the “Surgical site: Wound dehiscence” value ([8]; human, in vivo) was “(2.0%)”, the “Surgical site: Wound hematoma” value ([8]; human, in vivo) was “(1.4%)” and the “Treated subjects with treatment-emergent serious adverse events” value ([8]; human, in vivo) was 3 subjects. The “Constipation (Constipation), (%)” value ([8]; human, in vivo, 6 h) was “(6.8%)”, the “Dizziness (Dizziness), (%)” value ([8]; human, in vivo, 6 h) was “(20.9%)” and the “Dysgeusia (Metallic taste in mouth), (%)” value ([8]; human, in vivo, 6 h) was “(14.9%)”. The “Headache (Headache), (%)” value ([8]; human, in vivo, 6 h) was “(12.2%)”, the “Hypoesthesia (Numbness), (%)” value ([8]; human, in vivo, 6 h) was “(0.7%)” and the “Nausea (Nausea), (%)” value ([8]; human, in vivo, 6 h) was “(38.5%)”. The “Paresthesia (Tingling), (%)” value ([8]; human, in vivo, 6 h) was “(4.1%)”, the “Pruritus (Itching), (%)” value ([8]; human, in vivo, 6 h) was “(3.4%)” and the “Somnolence (Drowsiness), (%)” value ([8]; human, in vivo, 6 h) was “(32.4%)”. For the same molecule, the “Vomiting (Vomiting), (%)” value ([8]; human, in vivo, 6 h) was “(10.1%)”, the “Embryo-fetal deaths at the high dose” value ([9]; 22.2 mg/kg subcutaneous, organogenesis, rabbits) was “An increase in embryo-fetal deaths was observed” and the “Fetal No Observed Adverse Effect Level” value ([9]; female, rabbit, in vivo) was “approximately 0.2 times the MRHD”.
